Some test systems named below: NCI-H460 lung; A549 NSCLC; SK-MEL-5 melanoma; ACHN renal; EKVX NSCLC; HCC-2998 colon; SF-268 CNS; UACC-62 melanoma; SK-MEL-2 melanoma; K-562 leukemia.
Common to all, as to assay: inhibition of tumour cell growth, NCI panel, 48 h

Consider 5 compounds from PubChem BioAssay (NCI).

Structures are written as SMILES.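 Test compounds were applied to cells in 96-well plates for 48 hours at 5 doses. At the GI50, growth is halved. TGI: total growth inhibition.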 Some results are limits rather than exact numbers.

Regarding `CCCCCCCCCCCCCCCc1ccc(C(=O)C[n+]2ccccc2)cc1`, the GI50 is 0.546 µM with NCI-H460 lung; 0.731 µM with A549 NSCLC; 1.44 µM in the test on SK-MEL-5 melanoma; 1.01 µM in the test on ACHN renal; 1.82 µM in the test on EKVX NSCLC; 1.27 µM in the test on HCC-2998 colon. For the same compound, the TGI was determined as 1.78 µM in the test on NCI-H460 lung; 2.03 µM in the test on A549 NSCLC; 3.93 µM in the test on SK-MEL-5 melanoma; 2.22 µM in the test on ACHN renal; 8.72 µM in the test on EKVX NSCLC; 2.55 µM in the test on HCC-2998 colon.

As for `NC(=O)OCc1c(O)c2c(c(O)c1COC(N)=O)C(=O)C=CC2=O`, the TGI with SF-268 CNS, in the test on UACC-62 melanoma, in the test with SK-MEL-2 melanoma, in the test with A549 NSCLC, in the test with SK-MEL-5 melanoma and in the test on ACHN renal was more than 100 µM in each case. Also, the TGI in the test with EKVX NSCLC, in the test with K-562 leukemia and in the test on HCC-2998 colon was more than 100 µM in each case.

In the case of `COc1ccc(C2C(Cl)C(=O)N2NC(=O)c2ccc(NC(C)=O)cc2)cc1OC` (stereo not drawn), the TGI in the test with SF-268 CNS, in the test with UACC-62 melanoma, with SK-MEL-2 melanoma, in the test on NCI-H460 lung, with A549 NSCLC and in the test with SK-MEL-5 melanoma was more than 100 µM throughout. Besides, the TGI with ACHN renal, with K-562 leukemia and with HCC-2998 colon was more than 100 µM throughout.

For `N=C(N)c1ccc(-c2ccc(-c3ccccc3)o2)cc1`, the GI50 is 1.96 µM with SF-268 CNS; 2.14 µM with SK-MEL-2 melanoma; 1.93 µM with NCI-H460 lung; 2.51 µM in the test on A549 NSCLC; 1.94 µM in the test on SK-MEL-5 melanoma; 1.67 µM in the test with ACHN renal. For the same compound, the GI50 was 2.61 µM in the test with EKVX NSCLC, 2.22 µM with K-562 leukemia and 1.51 µM with HCC-2998 colon. Moreover, the TGI in the test with SF-268 CNS worked out at 4.28 µM; in the test on SK-MEL-2 melanoma, 3.98 µM; with NCI-H460 lung it was 3.65 µM; with A549 NSCLC, 6.24 µM; in the test on SK-MEL-5 melanoma, 3.72 µM; in the test with ACHN renal, 3.26 µM. The results for the TGI in the test with EKVX NSCLC, with K-562 leukemia and with HCC-2998 colon were 11.8 µM, 4.99 µM and 3.15 µM, respectively.

With `O=C(Nc1ccc(-n2cc(-c3ccncc3)c(-c3ccc(O)c(Cl)c3)n2)cc1)c1ccc(Cl)c(Cl)c1`, the GI50 was more than 32.5 µM in the test with SF-268 CNS; 2.48 µM in the test with UACC-62 melanoma; 0.932 µM in the test on SK-MEL-2 melanoma; 1.58 µM in the test with NCI-H460 lung; 2.87 µM in the test with A549 NSCLC; 1 µM in the test on SK-MEL-5 melanoma. Further, the GI50 in the test with ACHN renal was 1.34 µM; in the test with EKVX NSCLC, 30.5 µM; in the test with K-562 leukemia, 0.966 µM; with HCC-2998 colon, 2.03 µM. For the same compound, the TGI with SF-268 CNS is more than 32.5 µM; in the test on UACC-62 melanoma it was more than 32.5 µM; in the test on SK-MEL-2 melanoma, 7.41 µM; with NCI-H460 lung, more than 32.5 µM; with A549 NSCLC, more than 32.5 µM; in the test with SK-MEL-5 melanoma, more than 32.5 µM. The TGI in the test with ACHN renal, in the test on EKVX NSCLC, with K-562 leukemia and in the test with HCC-2998 colon was more than 32.5 µM throughout.
